Key:
Assay type in all cases: in vivo
[1] = system: field corn (Zea mays L., var. Dekalb 535, CORN); assay: Pre-emerge test, crop safety; details: for Pre-emerge phytotoxicity rating (0-100), crop damage, CORN: rated 14 days after application, 0 = no damage, 100 = complete death; for phytotoxicity rating CORN: pre-emerge, 14 days after application, rating scale 0-100
Summary of the method: (§1)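 Sandy loam pots; pre-emerge: sown 1 d pre-spray, surface-watered after, then bottom-watered. Post-emerge: sown 8–21 d before, 2–3 leaf stage, + 0.25% v/v NIS, bottom-watered. Acetone, 187 l/ha track spray, 15–1000 g ai/ha. 0–100 injury score, day 14.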

[2] = system: upland rice (Oryza sp., var. Tebonnet, RICE); assay: Pre-emerge test, crop safety; details: for Pre-emerge phytotoxicity rating (0-100), crop damage, RICE: rated 14 days after application, 0 = no damage, 100 = complete death; for phytotoxicity rating RICE: pre-emerge, 14 days after application, rating scale 0-100
Summary of the method: as §1

[3] = system: redroot pigweed (Amaranthus retroflexus, AMARE); assay: Pre-emerge test, greenhouse herbicide activity screening; details: for Pre-emerge Herbicidal Activity, phytotoxicity rating (0-100), AMARE: rated 14 days after application, 0 = no damage, 100 = complete death; for phytotoxicity rating AMARE: pre-emerge, 14 days after application, rating scale 0-100
Summary of the method: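 Compounds in acetone were track-sprayed at 187 l/ha, 15–1000 g ai/ha, onto sandy loam pots. Pre-emerge seeds were sown one day before spraying, with surface watering afterwards. Post-emerge plants were at the 2–3 leaf stage and sprayed with 0.25% v/v non-ionic surfactant. Injury was rated 0–100 at 14 days.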

[4] = system: green foxtail (Setaria viridis, SETVI); assay: as above; details: for Pre-emerge Herbicidal Activity, phytotoxicity rating (0-100), SETVI: rated 14 days after application, 0 = no damage, 100 = complete death; for phytotoxicity rating SETVI: pre-emerge, 14 days after application, rating scale 0-100
Summary of the method: (§2)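 Compounds in acetone were track-sprayed at 15-1000 g ai/ha (187 l/ha) on sandy loam pots: pre-emerge one day after seeding, post-emerge at 2-3 leaf stage with 0.25% v/v non-ionic surfactant. Phytotoxicity was rated 14 days later on a 0 (no damage) to 100 (complete death) scale.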

[5] = system: sicklepod (Cassia obtusifolia, CASOB); assay: as above; details: for Pre-emerge Herbicidal Activity, phytotoxicity rating (0-100), CASOB: rated 14 days after application, 0 = no damage, 100 = complete death; for phytotoxicity rating CASOB: pre-emerge, 14 days after application, rating scale 0-100
Summary of the method: as §2

[6] = system: common ragweed (Ambrosia artemisizfolia L., AMBEL); assay: as above; details: for Pre-emerge Herbicidal Activity, phytotoxicity rating (0-100), AMBEL: rated 14 days after application, 0 = no damage, 100 = complete death; for phytotoxicity rating AMBEL: pre-emerge, 14 days after application, rating scale 0-100
Summary of the method: as §2

[7] = system: johnsongrass (Sorghum halepense, SORHA); assay: as above; details: for Pre-emerge Herbicidal Activity, phytotoxicity rating (0-100), SORHA: rated 14 days after application, 0 = no damage, 100 = complete death; for phytotoxicity rating SORHA: pre-emerge, 14 days after application, rating scale 0-100
Summary of the method: as §2

[8] = system: velvetleaf (Abutilon theophrasti, ABUTH); assay: as above; details: for Pre-emerge Herbicidal Activity, phytotoxicity rating (0-100), ABUTH: rated 14 days after application, 0 = no damage, 100 = complete death; for phytotoxicity rating ABUTH: pre-emerge, 14 days after application, rating scale 0-100
Summary of the method: as §2

[9] = system: ivyleaf morningglory (Ipomoea hederacea, IPOHE); assay: as above; details: for Pre-emerge Herbicidal Activity, phytotoxicity rating (0-100), IPOHE: rated 14 days after application, 0 = no damage, 100 = complete death; for phytotoxicity rating IPOHE: pre-emerge, 14 days after application, rating scale 0-100
Summary of the method: as §2

[10] = system: lambsquarters (Chenopodium album, CHEAL); assay: as above; details: for Pre-emerge Herbicidal Activity, phytotoxicity rating (0-100), CHEAL: rated 14 days after application, 0 = no damage, 100 = complete death; for phytotoxicity rating CHEAL: pre-emerge, 14 days after application, rating scale 0-100
Summary of the method: as §2

[11] = system: barnyardgrass (Echinochloa crus-galli, ECHCG); assay: as above; details: for Pre-emerge Herbicidal Activity, phytotoxicity rating (0-100), ECHCG: rated 14 days after application, 0 = no damage, 100 = complete death; for phytotoxicity rating ECHCG: pre-emerge, 14 days after application, rating scale 0-100
Summary of the method: as §2

[12] = system: large crabgrass (Digitaria sanguinalis, DIGSA); assay: as above; details: for Pre-emerge Herbicidal Activity, phytotoxicity rating (0-100), DIGSA: rated 14 days after application, 0 = no damage, 100 = complete death; for phytotoxicity rating DIGSA: pre-emerge, 14 days after application, rating scale 0-100
Summary of the method: as §2

CCOc1ccc(C(=O)Nc2c(OC)c(Cl)cc(F)c2-n2c(=O)cc(C(F)(F)F)n(C)c2=O)cc1 [2-64]
Pre-emerge phytotoxicity rating (0-100), crop damage, CORN ([1]; 63 g ai/ha): 0
Pre-emerge phytotoxicity rating (0-100), crop damage, CORN ([1]; 250 g ai/ha): 35
Pre-emerge phytotoxicity rating (0-100), crop damage, RICE ([2]; 63 g ai/ha): 10
Pre-emerge phytotoxicity rating (0-100), crop damage, RICE ([2]; 250 g ai/ha): 60
Pre-emerge Herbicidal Activity, phytotoxicity rating (0-100), AMARE ([3]; 63 g ai/ha): 90
Pre-emerge Herbicidal Activity, phytotoxicity rating (0-100), AMARE ([3]; 250 g ai/ha): 100
Pre-emerge Herbicidal Activity, phytotoxicity rating (0-100), SETVI ([4]; 63 g ai/ha): 100
Pre-emerge Herbicidal Activity, phytotoxicity rating (0-100), SETVI ([4]; 250 g ai/ha): 100
Pre-emerge Herbicidal Activity, phytotoxicity rating (0-100), CASOB ([5]; 63 g ai/ha): 0
Pre-emerge Herbicidal Activity, phytotoxicity rating (0-100), CASOB ([5]; 250 g ai/ha): 100
Pre-emerge Herbicidal Activity, phytotoxicity rating (0-100), AMBEL ([6]; 63 g ai/ha): 0
Pre-emerge Herbicidal Activity, phytotoxicity rating (0-100), AMBEL ([6]; 250 g ai/ha): 60
Pre-emerge Herbicidal Activity, phytotoxicity rating (0-100), SORHA ([7]; 63 g ai/ha): 10
Pre-emerge Herbicidal Activity, phytotoxicity rating (0-100), SORHA ([7]; 250 g ai/ha): 50
Pre-emerge Herbicidal Activity, phytotoxicity rating (0-100), ABUTH ([8]; 63 g ai/ha): 100
Pre-emerge Herbicidal Activity, phytotoxicity rating (0-100), ABUTH ([8]; 250 g ai/ha): 100
Pre-emerge Herbicidal Activity, phytotoxicity rating (0-100), IPOHE ([9]; 63 g ai/ha): 0
Pre-emerge Herbicidal Activity, phytotoxicity rating (0-100), IPOHE ([9]; 250 g ai/ha): 40
Pre-emerge Herbicidal Activity, phytotoxicity rating (0-100), CHEAL ([10]; 63 g ai/ha): 90
Pre-emerge Herbicidal Activity, phytotoxicity rating (0-100), CHEAL ([10]; 250 g ai/ha): 100
Pre-emerge Herbicidal Activity, phytotoxicity rating (0-100), ECHCG ([11]; 63 g ai/ha): 0
Pre-emerge Herbicidal Activity, phytotoxicity rating (0-100), ECHCG ([11]; 250 g ai/ha): 60
Pre-emerge Herbicidal Activity, phytotoxicity rating (0-100), DIGSA ([12]; 63 g ai/ha): 40
Pre-emerge Herbicidal Activity, phytotoxicity rating (0-100), DIGSA ([12]; 250 g ai/ha): 70

CCOC(=O)C(Cl)Cc1c(OCC)c(Cl)cc(F)c1-n1c(=O)cc(C(F)(F)F)n(C)c1=O (stereo not drawn) [14-64]
phytotoxicity rating CORN ([1]; 63 g ai/ha): 0
phytotoxicity rating CORN ([1]; 250 g ai/ha): 0
phytotoxicity rating RICE ([2]; 63 g ai/ha): 0
phytotoxicity rating RICE ([2]; 250 g ai/ha): 10
phytotoxicity rating AMARE ([3]; 63 g ai/ha): 100
phytotoxicity rating AMARE ([3]; 250 g ai/ha): 100
phytotoxicity rating SETVI ([4]; 63 g ai/ha): 0
phytotoxicity rating SETVI ([4]; 250 g ai/ha): 100
phytotoxicity rating CASOB ([5]; 63 g ai/ha): 0
phytotoxicity rating CASOB ([5]; 250 g ai/ha): 0
phytotoxicity rating AMBEL ([6]; 63 g ai/ha): 20
phytotoxicity rating AMBEL ([6]; 250 g ai/ha): 60
phytotoxicity rating SORHA ([7]; 63 g ai/ha): 0
phytotoxicity rating SORHA ([7]; 250 g ai/ha): 20
phytotoxicity rating ABUTH ([8]; 63 g ai/ha): 90
phytotoxicity rating ABUTH ([8]; 250 g ai/ha): 100
phytotoxicity rating IPOHE ([9]; 63 g ai/ha): 0
phytotoxicity rating IPOHE ([9]; 250 g ai/ha): 0
phytotoxicity rating CHEAL ([10]; 63 g ai/ha): 60
phytotoxicity rating CHEAL ([10]; 250 g ai/ha): 100
phytotoxicity rating ECHCG ([11]; 63 g ai/ha): 0
phytotoxicity rating ECHCG ([11]; 250 g ai/ha): 95
phytotoxicity rating DIGSA ([12]; 63 g ai/ha): 50
phytotoxicity rating DIGSA ([12]; 250 g ai/ha): 100
